Experimental data reported in patent publication US12171744B2, “Pharmaceutical combinations for the treatment of cancer” (Presage Biosciences, Inc., priority 2016, dated 2024).

Experiments:
[1] = target: T1, CDK6 (Homo sapiens, UniProt Q00534); assay: Kinase inhibition profiling (filter binding assay with γ-33P-ATP); format: biochemical
T1 construct: purchased Reaction Biology Corp. (testing facility)
Description: (§1) For each kinase, an IC50 value were calculated from a 10-point concentration curve of the test article and converted to Ki values.

[2] = target: T2, CDK1 (Homo sapiens, UniProt P06493); assay: as above; format: biochemical
T2 construct: purchased Reaction Biology Corp. (testing facility)
Description: as §1

[3] = target: T3, CDK4 (Homo sapiens, UniProt P11802); assay: as above; format: biochemical
T3 construct: purchased Reaction Biology Corp. (testing facility)
Description: as §1

[4] = tested on: Toledo cells; assay: CIVO microinjection, CC3 expression; design: species or system mice; settings: mouse, in vivo
Description: (§2) Mice were enrolled into CIVO drug studies when the tumor volume reached approximately 1000 mm^3. Microinjection studies were performed using the CIVO device as previously described (Klinghoffer et al, Science Translational Medicine 2015) The device was configured with 6 injection needles set for a 6 mm injection length and a total volume delivery of 3 μl. A fluorescent tracking marker (FTM) was added to each drug reservoir in vehicle for delivery along with each drug or drug combination. All micro-doses were equivalent to or lower than what would be allowed under FDA guidelines for Exploratory IND (Investigational New Drug) studies and by solubility of drug into vehicle. Total amounts of agents injected are tabulated below in Table 4.

[5] = tested on: RIVA cells; assay: CIVO microinjection, CC3 expression; design: species or system mice; settings: mouse, in vivo
Description: as §2

[6] = tested on: HCC1187 cells; assay: PCR assay of XBP1 transcription; format: cell-based; settings: Voruciclib 1.5 uM, Bortezomib 10 nM, 4 hours
Description: 1 ug of mRNA from each condition was used to generate cDNA using the High Capacity cDNA Reverse Transcription Kit (Applied Biosystems) and manufacturer's protocol. 100 ng cDNA was used to conduct a PCR assay to amplify XBP1 u or splice forms (Thermofisher PCR Supermix)—94 deg C. for 2 mins, (94 deg C. for 15 secs, 55 deg C. for 30 secs, 72 deg C. for 1 min)×30 cycles, 72 deg C. for 7 mins, hold at 4 deg C. XBP1 spiced and unspliced variants were detected.

[7] = tested on: NUDHL1 model of DLBCL; assay: Xenograft tumor growth; format: in vivo, NOD SCID mice; settings: Voruciclib 200 mpk, Venetoclax 50 mpk
Description: Immune deficient NOD SCID mice were implanted with the NUDHL1 model of DLBCL. The xenografted tumors were allowed to grow in the NOD SCID host until they reached 200 mm^3, at which point the xenografted animals were randomized into 4 study groups: 1. Vehicle control; 2. […] Venetoclax at 50 mpk; and 4. […] Venetoclax was dosed by oral gavage on days 1 and 4 of each weekly cycle. Drug effects were assessed via tumor volume measurements twice weekly by a technician blinded to the treatment of each subject in the study. N=5-6 animals per treatment arm.

[8] = tested on: SU-DHL-4 model of DLBCL; assay: Western blot of treated cells; format: cell-based
Description: Cell lines shown in Table 1, adherent or suspension, were treated in 6-well dishes or T10 flasks respectively, seeded at one million per ml density prior to treatment in total volumes of 3-10 ml. All agents used for in vitro cell treatments were formulated in water/DMSO to achieve required concentrations (as stated in respective figure labels/legends) with DMSO concentrations not exceeding 0.01%. Drug sources are indicated in table under ‘CIVO microinjection studies’. Cells were harvested at experimental time points: 2, 6, or 24 hours post treatment as indicated in respective figures, first by washing cells twice in ice-cold PBS in 15 ml falcon tubes, centrifugation at 1000 rpm for 5 mins followed by lysis of the respective cell pellets as described in section below. Note: Drug resistant NUDHL1 Dox 1000 nM and Toledo Dox 1000 nM cell lines were generated at Presage by culturing parental lines in media with stepwise increments in Doxorubicin concentration over several passages. These cells were used to generate xenografts when resistance to 1 uM Dox was achieved.
Protein lysates were prepared by adding ice-cold 1×RIPA Buffer (from 10×, Millipore) with 1×-3× Halt protease and phosphatase inhibitor cocktail (100×, Pierce) to cell pellets, followed by pulse sonication (˜3-5 secs) three times. Lysates were cleared by centrifugation at 14K rpm for 15-20 mins and the supernatant (lysate) was collected for further analysis. To prepare lysates from cryopreserved xenograft tumor tissue, tissue was first homogenized using a hand-held tissue homogenizer (Cole Palmer) in above lysis buffer followed by pulse sonication and centrifugation as described above. Above steps were carried out under ice cold conditions. Protein samples were quantified using Bradford assay (Biorad) at 1:10 or higher dilutions using appropriate blank controls with 1×RIPA. 20-25 micrograms of protein from each sample were subject to SDS-PAGE using BOLT 4-12% Bis-Tris gels (Thermofisher) and transferred to either 0.45 or 0.2 micron pore size membranes (as applicable based on protein molecular size), and either nitrocellulose (NC) or pvdf (Thermofisher) using manufacturer's protocol, blocked for one hour in 5% milk at room temperature, probed with primary antibodies (Table 2) at 4 deg C. overnight and corresponding HRP-conjugated secondary antibodies (Jackson Immunoresearch, 1:10,000-1:20,000 dilutions) for 1 hour at room temperature. Three PBS/0.01% Tween-20 washes (5-10 mins each) were carried out after each antibody incubation. ECL chemiluminescent substrate (Pierce or GE) and autoradiographic film (Thermofisher) was used for detection of protein signals.
Cleaved PARP (cPARP) may be used as a biomarker of apoptosis. […] Cells were exposed to drug for 24 h prior to cell lysis and examination by Western Blot using antibodies specific for the cleaved form of PARP, MCL-1, C-MYC, and Beta actin (as a protein loading control) of FIG. 22A and BCL2 as an additional protein loading control in FIG. 22B.
Cleaved PARP (cPARP) may be used as a biomarker of apoptosis. To assess combination efficacy of the two agents of voruciclib and venetoclax together, low doses of each were examined as single agents or as a combination in the three models of DLBCL. Cells were exposed to drug for 24 h prior to cell lysis and examination by Western Blot using antibodies specific for the cleaved form of PARP and Beta actin (as a protein loading control).
FIG. 33 illustrates that voruciclib-induced apoptosis correlates with repression of MCL-1. Three DLBCL models were used: SUDHL4, RIvA, and U2932. Cleaved PARP (cPARP) may be used as a biomarker of apoptosis.

[9] = 0.15 uM voruciclib, 20 nM venetoclax, 24 h
[10] = increasing concentration of voruciclib, single agent

T3 sequence (P11802 whole entry): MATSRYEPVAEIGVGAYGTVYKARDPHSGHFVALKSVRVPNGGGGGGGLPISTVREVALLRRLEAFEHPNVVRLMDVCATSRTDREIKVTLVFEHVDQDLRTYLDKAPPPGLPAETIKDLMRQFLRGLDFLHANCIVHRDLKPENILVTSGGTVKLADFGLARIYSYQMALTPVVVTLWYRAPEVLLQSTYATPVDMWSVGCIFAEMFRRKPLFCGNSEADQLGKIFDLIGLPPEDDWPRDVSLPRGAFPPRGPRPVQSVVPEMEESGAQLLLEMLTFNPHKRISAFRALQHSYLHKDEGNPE
T3 sequence (P24385 whole entry partner): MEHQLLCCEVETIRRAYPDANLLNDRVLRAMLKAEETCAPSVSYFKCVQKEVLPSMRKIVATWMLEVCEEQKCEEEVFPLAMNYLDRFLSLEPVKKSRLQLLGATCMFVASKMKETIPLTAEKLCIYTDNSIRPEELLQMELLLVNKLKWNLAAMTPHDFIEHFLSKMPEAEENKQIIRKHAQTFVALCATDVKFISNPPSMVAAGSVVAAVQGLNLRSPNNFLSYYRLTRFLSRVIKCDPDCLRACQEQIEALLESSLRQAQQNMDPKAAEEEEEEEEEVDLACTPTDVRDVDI
T1 sequence (Q00534 whole entry): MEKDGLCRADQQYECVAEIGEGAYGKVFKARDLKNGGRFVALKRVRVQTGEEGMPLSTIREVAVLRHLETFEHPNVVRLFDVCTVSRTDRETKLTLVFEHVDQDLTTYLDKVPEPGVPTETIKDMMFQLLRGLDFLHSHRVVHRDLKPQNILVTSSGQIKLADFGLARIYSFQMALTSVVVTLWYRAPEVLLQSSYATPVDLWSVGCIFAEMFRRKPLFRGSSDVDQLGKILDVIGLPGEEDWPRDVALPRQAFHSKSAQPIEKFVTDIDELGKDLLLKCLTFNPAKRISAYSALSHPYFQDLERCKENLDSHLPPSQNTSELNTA
T1 sequence (P24385 whole entry partner): as the sequence (P24385 whole entry partner) above
T2 sequence (P06493 whole entry): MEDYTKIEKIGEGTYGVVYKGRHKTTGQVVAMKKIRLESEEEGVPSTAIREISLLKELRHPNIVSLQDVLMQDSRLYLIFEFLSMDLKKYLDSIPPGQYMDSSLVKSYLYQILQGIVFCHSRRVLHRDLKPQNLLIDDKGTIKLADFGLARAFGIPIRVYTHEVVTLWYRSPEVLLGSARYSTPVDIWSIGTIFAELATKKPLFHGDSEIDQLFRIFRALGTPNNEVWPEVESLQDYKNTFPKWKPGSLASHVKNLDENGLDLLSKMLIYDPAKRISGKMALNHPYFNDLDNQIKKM
T2 sequence (P14635 whole entry partner): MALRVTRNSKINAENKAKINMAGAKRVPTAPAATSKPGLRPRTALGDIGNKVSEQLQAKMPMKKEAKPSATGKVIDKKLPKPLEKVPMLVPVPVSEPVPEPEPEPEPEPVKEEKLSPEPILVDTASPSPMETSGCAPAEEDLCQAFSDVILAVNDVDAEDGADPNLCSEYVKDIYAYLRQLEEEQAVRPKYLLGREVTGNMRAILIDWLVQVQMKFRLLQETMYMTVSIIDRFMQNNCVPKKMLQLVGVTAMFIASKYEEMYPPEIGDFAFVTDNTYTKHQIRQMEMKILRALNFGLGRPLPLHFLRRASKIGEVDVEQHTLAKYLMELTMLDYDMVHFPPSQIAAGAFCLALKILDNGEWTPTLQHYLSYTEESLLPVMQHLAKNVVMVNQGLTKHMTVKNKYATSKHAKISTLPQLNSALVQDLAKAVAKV

`CN1CC[C@@H](c2c(O)cc(O)c3c(=O)cc(-c4ccc(C(F)(F)F)cc4Cl)oc23)[C@@H]1CO` (relative stereo) [voruciclib, (+)-trans-2-(2-Chloro-4-trifluoromethylphenyl)-5,7-dihydroxy-8-(2-hydroxymethyl-1-methylpyrrolidin-3-yl)-chromen-4-one] was tested, and the potency [1] was “single digit”, the potency [2] was “single digit” and the potency [3] was “single digit”. For the same compound, the CC3 expression [4] was “slight effect”, the CC3 expression [5] was “slight effect” and the “bortezomib-induced transcriptional induction of XBP1” value [6] was “decreased”. For the same compound, the “tumor size (images)” value [7] was “smaller”, the “venetoclax-induced MCL-1” value ([8]; 0.15 uM voruciclib with 20 nM venetoclax, 24 h) was “represses” and the MCL-1 expression [8, 9] was “maintains some efficacy for repressing”. For the same compound, the “apoptosis (cleaved PARP)” value [8, 9] was “neither compound induces apoptosis as a single agent”, the MCL-1 [8, 10] was “suppresses” and the “apoptosis (cPARP)” value [8, 10] was “increases as the concentration of voruciclib increases”. The MCL1 ([8]; voruciclib 1.5 uM, 24 h, Western blot) was “suppresses”.
